ChEMBL document CHEMBL3608302, “Identification of 2-aminopyrimidine derivatives as inhibitors of the canonical Wnt signaling pathway” (Bioorg Med Chem, 2015)
Converted amounts (≈) assume the structure as drawn.

Assays:
[1] = Inhibition of canonical Wnt pathway in human DBTRG-05-MG cells after 36 hrs by TCF-luciferase and TA-renilla dual-luciferase reporter assay; format: cell-based
[2] = Solubility of the compound at pH 3 to 7.4 after 24 hrs; format: physicochemical; conditions: buffer; for solubility: pH 3, 24 h; for solubility at 24 h: pH 3
CYP3A4 = CYP3A4 (Homo sapiens, UniProt P08684); assay: Metabolic stability of in DMSO solution assessed as human CYP3A4-mediated drug degdaradtion by measuring compound remaining at 1 uM after 1 hr in presence of human CYP3A4 and NADPH; format: ADME; conditions: human CYP3A4 enzyme, read-out: Stability
[3] = Permeability of the compound by PAMPA; format: physicochemical; conditions: read-out: permeability
[4] = Homo sapiens, DBTRG-05MG, 36 h, read-out: IC50

Sequence of CYP3A4 (P08684 whole entry): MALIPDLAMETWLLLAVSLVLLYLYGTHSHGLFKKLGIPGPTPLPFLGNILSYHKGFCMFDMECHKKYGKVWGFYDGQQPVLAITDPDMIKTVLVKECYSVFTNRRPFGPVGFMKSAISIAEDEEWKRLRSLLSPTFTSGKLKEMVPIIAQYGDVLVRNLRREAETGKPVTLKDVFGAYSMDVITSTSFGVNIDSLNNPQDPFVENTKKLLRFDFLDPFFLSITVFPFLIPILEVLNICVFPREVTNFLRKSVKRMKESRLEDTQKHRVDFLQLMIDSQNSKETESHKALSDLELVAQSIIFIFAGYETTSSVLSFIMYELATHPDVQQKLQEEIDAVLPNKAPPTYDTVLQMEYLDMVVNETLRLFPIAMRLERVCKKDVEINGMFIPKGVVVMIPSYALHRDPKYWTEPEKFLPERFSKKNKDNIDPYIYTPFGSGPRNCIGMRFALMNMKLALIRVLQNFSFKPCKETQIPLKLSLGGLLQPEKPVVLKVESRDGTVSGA

Row | IC50 [1, 4] | solubility [2] | remaining at 1 h, 1 µM (CYP3A4) | IC50 [1] | Papp [3] | solubility at 24 h [2] | Compound
1 | 8.5 µM | Insoluble | < 20% |  |  |  | Cc1cc(-c2cnc(N3CCOCC3)nc2-c2ccc(C)s2)on1
2 |  | Insoluble | < 20% | Not Active |  |  | Cc1cc(-c2cnc(N3CCCC3)nc2-c2ccc(C)s2)on1
3 |  |  | 51% | Not Active | > 10 ×10⁻⁶ cm/s | 11 µM (≈ 3.91 µg/mL) | Cc1cc(-c2cnc(N3CCN(C)CC3)nc2-c2ccc(C)s2)on1
4 | 14.1 µM | Insoluble | < 20% |  |  |  | Cc1cc(-c2cnc(N3CC(C)OC(C)C3)nc2-c2ccc(C)s2)on1 (stereo not drawn)
5 | 8.05 µM | Insoluble | < 20% |  |  |  | Cc1cc(-c2cnc(NC(C)C)nc2C2CCN(C(=O)c3ccc(C)s3)CC2)on1
6 | 17.6 µM |  | < 20% |  |  | 1 µM (≈ 0.363 µg/mL) | Cc1cc(-c2cnc(NCc3cccnc3)nc2-c2ccc(C)s2)on1
7 | 13.9 µM |  | < 20% |  |  | 1 µM (≈ 0.363 µg/mL) | Cc1cc(-c2cnc(NCc3ccccn3)nc2-c2ccc(C)s2)on1
8 |  | Insoluble | 20% | Not Active |  |  | Cc1cc(-c2cnc(NC(C)C)nc2-c2ccc(C)s2)on1
9 |  | Insoluble | 29% | Not Active |  |  | Cc1cc(-c2cnc(NCc3ccc(F)cc3)nc2-c2ccc(C)s2)on1
10 |  | Insoluble | 27% | Not Active | > 10 ×10⁻⁶ cm/s |  | COCCNc1ncc(-c2cc(C)no2)c(-c2ccc(C)s2)n1
11 |  |  | 59% | Not Active | > 10 ×10⁻⁶ cm/s | 207 µM (≈ 73.6 µg/mL) | CC(=O)N1CCC(c2nc(N3CCCC3)ncc2-c2cc(C)no2)CC1
12 |  |  | 100% | Not Active | 2 ×10⁻⁶ cm/s | 225 µM (≈ 86.5 µg/mL) | CC(=O)N1CCC(c2nc(N3CCN(C)CC3)ncc2-c2cc(C)no2)CC1
13 | 10.6 µM |  | 75% |  | > 10 ×10⁻⁶ cm/s | 211 µM (≈ 78.4 µg/mL) | CC(=O)N1CCC(c2nc(N3CCOCC3)ncc2-c2cc(C)no2)CC1
14 |  |  | < 20% |  | 2 ×10⁻⁶ cm/s | 238 µM (≈ 93.4 µg/mL) | CC(=O)N1CCC(c2nc(NCc3cccnc3)ncc2-c2cc(C)no2)CC1
15 |  |  | 27% | Not Active | 2 ×10⁻⁶ cm/s | 221 µM (≈ 86.7 µg/mL) | CC(=O)N1CCC(c2nc(NCc3ccccn3)ncc2-c2cc(C)no2)CC1
16 |  |  | 75% | Not Active | > 10 ×10⁻⁶ cm/s | 224 µM (≈ 76.9 µg/mL) | CC(=O)N1CCC(c2nc(NC(C)C)ncc2-c2cc(C)no2)CC1
17 |  | Insoluble | < 20% | Not Active | > 10 ×10⁻⁶ cm/s |  | CC(=O)N1CCC(c2nc(NCc3ccc(F)cc3)ncc2-c2cc(C)no2)CC1
18 |  |  | 84% | Not Active | 2 ×10⁻⁶ cm/s | 233 µM (≈ 83.7 µg/mL) | COCCNc1ncc(-c2cc(C)no2)c(C2CCN(C(C)=O)CC2)n1
